Assay results published in patent publication US20230073755A1, “USE OF IGF1 IN COMBINATION WITH IGFEC24 IN PREPARATION OF MEDICINE FOR PROMOTING TISSUE REPAIR AND REGENERATION” (Chongqing University, priority 2020, published 2023).

Tests used:
neuronal cells = assay: Neuroproliferation effect (Edu / DCX immunofluorescence, hippocampal dentate gyrus), adult female SD rats; assay type: in vivo; conditions: FIG. 4
Protocol: In certain embodiments, adult female SD rats were divided into five groups: PBS group, IGF1 group, IGF1Ec group, IGF1-24 group, and IGF1+IGF1Ec24 peptide group, with three rats in each group. The rats in each group were distinguished by ear clipping for subsequent protein injection according to the different body weights of the rats.
The rats in each group were injected with PBS, IGF1, IGF1Ec24 peptide, IGF1Ec and IGF1-24 for 7 consecutive days. Recombinant protein IGF1-24 was injected at 100 μg/kg, and the injection of the remaining proteins in each group was converted according to the molar amount of IGF1-24 injection as follows: 90 μg/kg for IGF1, 8.9 μg/kg for IGF1Ec24 peptide, 104 μg/kg for IGF1Ec.
After seven days of protein injection, the intraperitoneal injection of Edu solution at a concentration of 2.5 mg/kg was performed for seven days, so that the final total dose of each rat reached 50 mg/kg. […]
The microscope was selected with a 20× lens to observe the fluorescence staining of the dentate gyrus in the whole hippocampal region; the number of immature neurons and the number of newly proliferating neuronal cells in the dentate gyrus of the hippocampus were recorded.

myocardial tissue = assay: Myocardial injury repair in rat model of isoproterenol (ISO) myocardial injury; assay type: in vivo
Protocol: The rats were randomly selected and assigned into injection and control groups, with three rats in each group. The myocardial injury model was constructed by injecting an overdose of ISO at a dose of 80 mg/kg. The rats were fixed with a fixator to expose the abdomen; the rats were disinfected by wiping with alcohol cotton balls, and the amount of ISO injected was matched to their body weight, and then the rats were injected intraperitoneally for 1 week.
The rat was fixed with a fixator to keep its tail naturally down; before injection, the rat's tail was soaked in warm water for 3-4 min until the tail vein was seen clearly; then the rat's tail was wiped with an alcohol cotton ball for disinfection; then, when injecting the protein, the needle was injected at a minimal angle to the tail vein to keep it horizontal; after pushing the drug into the blood vessel, the wound was pressed with an alcohol cotton ball, and then the needle was withdrawn.
In order to fully remove the paraffin from the top of the slices, Paraffin sections of myocardial tissues were completely immersed in xylene twice, each time for 15 min; then the paraffin sections of cardiac tissues were placed into 100% ethanol solution, 95% ethanol solution, 75% ethanol solution, 50% ethanol solution and 3dH2O in turn, with a soaking time of 10 min for each gradient. The paraffin sections were removed and hematoxylin was added dropwise at the myocardial tissue in the sections for nuclear staining with a staining time of 8 min. immediately after the staining was completed, the sections were rinsed with tap water for 5 min, then differentiation solution was added dropwise at the myocardial tissue in the sections with a differentiation time of 20 s, and finally the sections were rinsed with tap water for 5 min. the sections were removed and eosin staining solution was added dropwise at the tissue with a staining time of 1 min, and finally the sections were rinsed with tap water Rinse the slices for 5 min. soak the paraffin sections according to a gradient of 50%, 75%, 95% and 100% ethanol, each for 5 min; then soak them twice in xylene for 2 min/time. Paraffin sections were removed from xylene, keeping xylene still retained on the sections; neutral gum was quickly added dropwise, and coverslips were picked up with forceps, and the coverslips were put down slowly.
The sections were soaked in xylene twice for 15 min/time; soaked sequentially according to a gradient of anhydrous ethanol, 95%, 75% and 50% alcohol solutions, each gradient for 5 min; finally the sections were soaked in triple distilled water for 5 min. equal amounts of Weigert iron hematoxylin A solution and B solution were mixed, and the mixture was added dropwise to the tissues, stained The sections were removed, and differentiation solution was added dropwise to the myocardial tissue for 20 s, and rinsed with tap water for 5 min. bluing solution was added dropwise to the tissue of the sections, and returned to blue treatment for 5 min, and rinsed with tap water for 5 min. lixin red magenta staining solution was added dropwise to the tissue of the sections, and staining time was 1 min, and rinsed with tap water for 5 min. 20% of Add phosphomolybdic acid solution dropwise on the tissue, stain for 5 min, pour off the phosphomolybdic acid solution on the section. Aniline blue staining solution was added dropwise for 5 min to re-stain the sections, and the aniline blue solution on the sections was poured off. […]

With “IGF1-24: 97 amino acids: amino-terminal 70 identical to IGF1, carboxyl-terminal 24 identical to IGFEc24 peptide, joined by three Gly linkers (SEQ ID NO: 4)” the “proliferation of neuronal cells” value (neuronal cells) was 10%, the “Masson staining: area of cardiac fibrosis” value (myocardial tissue; ISO+IGF1-24-treated group vs ISO-injured group, FIG. 12) was “significantly reduced” and the “HE staining of cardiac tissue: repair effect” value (myocardial tissue; ISO+IGF1-24 group compared with ISO+PBS group, FIG. 10) was “the repair effect was obvious”. For the same substance, the “rate of PH3 positive cells in myocardial tissue” value (myocardial tissue; after ISO injury and IGF1-24 treatment, injury without treatment 0.1%, FIG. 13A-B) was 0.8%, the “rate of Edu positive cells in myocardial tissue” value (myocardial tissue; after ISO injury and IGF1-24 treatment, injury without treatment 0.5%, FIG. 13A-B) was 1.4% and the “number of Ki67-positive cells (immunohistochemistry of heart tissue)” value (myocardial tissue; treatment group vs injury group, FIG. 13C) was “differed significantly”.
